Results taken from paper PMC11873239, “A covalent chemical probe for Chikungunya nsP2 cysteine protease with antialphaviral activity and proteome-wide selectivity” (Scientific Reports, 2025).

Columns and labels:
CHIKV nsP2pro = CHIKV nsP2pro (Chikungunya virus, UniProt F2YI08); assay: biochemical
[1] = target: HEK293 cell lysate proteins (Homo sapiens, UniProt P07355); format: binding
[2] = target: HEK293 cell lysate proteins (Homo sapiens, UniProt P31025); format: binding
[3] = target: HEK293 cell lysate proteins (Homo sapiens, UniProt P0DOX5); format: binding
[4] = target: HEK293 cell lysate proteins (Homo sapiens, UniProt Q14684); format: binding
[5] = target: HEK293 cell lysate proteins (Homo sapiens, UniProt P15924); format: binding
[6] = target: HEK293 cell lysate proteins (Homo sapiens, UniProt Q8N1N4); format: binding
[7] = target: HEK293 cell lysate proteins (Homo sapiens, UniProt P05089); format: binding
[8] = target: HEK293 cell lysate proteins (Homo sapiens, UniProt P81605); format: binding
[9] = target: HEK293 cell lysate proteins (Homo sapiens, UniProt P22528); format: binding
[10] = target: HEK293 cell lysate proteins (Homo sapiens, UniProt P05109); format: binding
[11] = target: HEK293 cell lysate proteins (Homo sapiens, UniProt Q13835); format: binding
[12] = target: HEK293 cell lysate proteins (Homo sapiens, UniProt P60709); format: binding
[13] = target: HEK293 cell lysate proteins (Homo sapiens, UniProt Q15517); format: binding
[14] = target: HEK293 cell lysate proteins (Homo sapiens, UniProt Q96QA5); format: binding
[15] = target: HEK293 cell lysate proteins (Homo sapiens, UniProt P04264); format: binding
[16] = target: HEK293 cell lysate proteins (Homo sapiens, UniProt Q14151); format: binding
[17] = target: HEK293 cell lysate proteins (Homo sapiens, UniProt P27708); format: binding
[18] = target: HEK293 cell lysate proteins (Homo sapiens, UniProt Q5T750); format: binding
[19] = target: HEK293 cell lysate proteins (Homo sapiens, UniProt Q8WVV4); format: binding
[20] = target: HEK293 cell lysate proteins (Homo sapiens, UniProt P11142); format: binding
[21] = target: HEK293 cell lysate proteins (Homo sapiens, UniProt P22531); format: binding
[22] = target: HEK293 cell lysate proteins (Homo sapiens, UniProt Q08188); format: binding
[23] = target: HEK293 cell lysate proteins (Homo sapiens, UniProt Q3KQU3); format: binding
[24] = target: HEK293 cell lysate proteins (Homo sapiens, UniProt O75342); format: binding
[25] = target: HEK293 cell lysate proteins (Homo sapiens, UniProt Q96P63); format: binding
[26] = target: HEK293 cell lysate proteins (Homo sapiens, UniProt Q15648); format: binding
[27] = target: HEK293 cell lysate proteins (Homo sapiens, UniProt Q03164); format: binding
[28] = target: HEK293 cell lysate proteins (Homo sapiens, UniProt P41252); format: binding
[29] = target: HEK293 cell lysate proteins (Homo sapiens, UniProt P04406); format: binding
[30] = target: HEK293 cell lysate proteins (Homo sapiens, UniProt P26358); format: binding
[31] = target: HEK293 cell lysate proteins (Homo sapiens, UniProt P42357); format: binding
[32] = target: HEK293 cell lysate proteins (Homo sapiens, UniProt Q9HCY8); format: binding
[33] = target: HEK293 cell lysate proteins (Homo sapiens, UniProt Q86VP6); format: binding
[34] = target: HEK293 cell lysate proteins (Homo sapiens, UniProt Q52LG2); format: binding
[35] = target: HEK293 cell lysate proteins (Homo sapiens, UniProt P25311); format: binding
[36] = target: HEK293 cell lysate proteins (Homo sapiens, UniProt P02788); format: binding
[37] = target: HEK293 cell lysate proteins (Homo sapiens, UniProt Q01469); format: binding
[38] = target: HEK293 cell lysate proteins (Homo sapiens, UniProt P23490); format: binding
[39] = target: HEK293 cell lysate proteins (Homo sapiens, UniProt Q5T749); format: binding
[40] = target: HEK293 cell lysate proteins (Homo sapiens, UniProt P22735); format: binding
[41] = target: HEK293 cell lysate proteins (Homo sapiens, UniProt P07339); format: binding

HEK293 cell lysate proteins (Homo sapiens, UniProt Q96QA5), sequence (Q96QA5 whole entry): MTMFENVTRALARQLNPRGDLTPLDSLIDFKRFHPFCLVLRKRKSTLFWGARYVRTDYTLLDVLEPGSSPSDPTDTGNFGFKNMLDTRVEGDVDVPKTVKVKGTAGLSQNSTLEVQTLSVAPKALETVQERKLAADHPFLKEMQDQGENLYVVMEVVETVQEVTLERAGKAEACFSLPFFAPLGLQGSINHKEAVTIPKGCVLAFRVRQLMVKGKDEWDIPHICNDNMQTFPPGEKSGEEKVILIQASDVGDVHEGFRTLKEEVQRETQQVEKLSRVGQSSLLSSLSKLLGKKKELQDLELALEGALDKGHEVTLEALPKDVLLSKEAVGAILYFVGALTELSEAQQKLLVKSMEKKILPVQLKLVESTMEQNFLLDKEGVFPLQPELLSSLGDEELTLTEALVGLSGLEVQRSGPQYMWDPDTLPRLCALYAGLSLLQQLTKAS
HEK293 cell lysate proteins (Homo sapiens, UniProt Q9HCY8), sequence (Q9HCY8 whole entry): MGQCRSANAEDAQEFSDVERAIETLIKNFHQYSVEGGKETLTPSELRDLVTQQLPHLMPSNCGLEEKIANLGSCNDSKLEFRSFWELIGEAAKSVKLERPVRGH
HEK293 cell lysate proteins (Homo sapiens, UniProt Q03164), sequence (Q03164 whole entry): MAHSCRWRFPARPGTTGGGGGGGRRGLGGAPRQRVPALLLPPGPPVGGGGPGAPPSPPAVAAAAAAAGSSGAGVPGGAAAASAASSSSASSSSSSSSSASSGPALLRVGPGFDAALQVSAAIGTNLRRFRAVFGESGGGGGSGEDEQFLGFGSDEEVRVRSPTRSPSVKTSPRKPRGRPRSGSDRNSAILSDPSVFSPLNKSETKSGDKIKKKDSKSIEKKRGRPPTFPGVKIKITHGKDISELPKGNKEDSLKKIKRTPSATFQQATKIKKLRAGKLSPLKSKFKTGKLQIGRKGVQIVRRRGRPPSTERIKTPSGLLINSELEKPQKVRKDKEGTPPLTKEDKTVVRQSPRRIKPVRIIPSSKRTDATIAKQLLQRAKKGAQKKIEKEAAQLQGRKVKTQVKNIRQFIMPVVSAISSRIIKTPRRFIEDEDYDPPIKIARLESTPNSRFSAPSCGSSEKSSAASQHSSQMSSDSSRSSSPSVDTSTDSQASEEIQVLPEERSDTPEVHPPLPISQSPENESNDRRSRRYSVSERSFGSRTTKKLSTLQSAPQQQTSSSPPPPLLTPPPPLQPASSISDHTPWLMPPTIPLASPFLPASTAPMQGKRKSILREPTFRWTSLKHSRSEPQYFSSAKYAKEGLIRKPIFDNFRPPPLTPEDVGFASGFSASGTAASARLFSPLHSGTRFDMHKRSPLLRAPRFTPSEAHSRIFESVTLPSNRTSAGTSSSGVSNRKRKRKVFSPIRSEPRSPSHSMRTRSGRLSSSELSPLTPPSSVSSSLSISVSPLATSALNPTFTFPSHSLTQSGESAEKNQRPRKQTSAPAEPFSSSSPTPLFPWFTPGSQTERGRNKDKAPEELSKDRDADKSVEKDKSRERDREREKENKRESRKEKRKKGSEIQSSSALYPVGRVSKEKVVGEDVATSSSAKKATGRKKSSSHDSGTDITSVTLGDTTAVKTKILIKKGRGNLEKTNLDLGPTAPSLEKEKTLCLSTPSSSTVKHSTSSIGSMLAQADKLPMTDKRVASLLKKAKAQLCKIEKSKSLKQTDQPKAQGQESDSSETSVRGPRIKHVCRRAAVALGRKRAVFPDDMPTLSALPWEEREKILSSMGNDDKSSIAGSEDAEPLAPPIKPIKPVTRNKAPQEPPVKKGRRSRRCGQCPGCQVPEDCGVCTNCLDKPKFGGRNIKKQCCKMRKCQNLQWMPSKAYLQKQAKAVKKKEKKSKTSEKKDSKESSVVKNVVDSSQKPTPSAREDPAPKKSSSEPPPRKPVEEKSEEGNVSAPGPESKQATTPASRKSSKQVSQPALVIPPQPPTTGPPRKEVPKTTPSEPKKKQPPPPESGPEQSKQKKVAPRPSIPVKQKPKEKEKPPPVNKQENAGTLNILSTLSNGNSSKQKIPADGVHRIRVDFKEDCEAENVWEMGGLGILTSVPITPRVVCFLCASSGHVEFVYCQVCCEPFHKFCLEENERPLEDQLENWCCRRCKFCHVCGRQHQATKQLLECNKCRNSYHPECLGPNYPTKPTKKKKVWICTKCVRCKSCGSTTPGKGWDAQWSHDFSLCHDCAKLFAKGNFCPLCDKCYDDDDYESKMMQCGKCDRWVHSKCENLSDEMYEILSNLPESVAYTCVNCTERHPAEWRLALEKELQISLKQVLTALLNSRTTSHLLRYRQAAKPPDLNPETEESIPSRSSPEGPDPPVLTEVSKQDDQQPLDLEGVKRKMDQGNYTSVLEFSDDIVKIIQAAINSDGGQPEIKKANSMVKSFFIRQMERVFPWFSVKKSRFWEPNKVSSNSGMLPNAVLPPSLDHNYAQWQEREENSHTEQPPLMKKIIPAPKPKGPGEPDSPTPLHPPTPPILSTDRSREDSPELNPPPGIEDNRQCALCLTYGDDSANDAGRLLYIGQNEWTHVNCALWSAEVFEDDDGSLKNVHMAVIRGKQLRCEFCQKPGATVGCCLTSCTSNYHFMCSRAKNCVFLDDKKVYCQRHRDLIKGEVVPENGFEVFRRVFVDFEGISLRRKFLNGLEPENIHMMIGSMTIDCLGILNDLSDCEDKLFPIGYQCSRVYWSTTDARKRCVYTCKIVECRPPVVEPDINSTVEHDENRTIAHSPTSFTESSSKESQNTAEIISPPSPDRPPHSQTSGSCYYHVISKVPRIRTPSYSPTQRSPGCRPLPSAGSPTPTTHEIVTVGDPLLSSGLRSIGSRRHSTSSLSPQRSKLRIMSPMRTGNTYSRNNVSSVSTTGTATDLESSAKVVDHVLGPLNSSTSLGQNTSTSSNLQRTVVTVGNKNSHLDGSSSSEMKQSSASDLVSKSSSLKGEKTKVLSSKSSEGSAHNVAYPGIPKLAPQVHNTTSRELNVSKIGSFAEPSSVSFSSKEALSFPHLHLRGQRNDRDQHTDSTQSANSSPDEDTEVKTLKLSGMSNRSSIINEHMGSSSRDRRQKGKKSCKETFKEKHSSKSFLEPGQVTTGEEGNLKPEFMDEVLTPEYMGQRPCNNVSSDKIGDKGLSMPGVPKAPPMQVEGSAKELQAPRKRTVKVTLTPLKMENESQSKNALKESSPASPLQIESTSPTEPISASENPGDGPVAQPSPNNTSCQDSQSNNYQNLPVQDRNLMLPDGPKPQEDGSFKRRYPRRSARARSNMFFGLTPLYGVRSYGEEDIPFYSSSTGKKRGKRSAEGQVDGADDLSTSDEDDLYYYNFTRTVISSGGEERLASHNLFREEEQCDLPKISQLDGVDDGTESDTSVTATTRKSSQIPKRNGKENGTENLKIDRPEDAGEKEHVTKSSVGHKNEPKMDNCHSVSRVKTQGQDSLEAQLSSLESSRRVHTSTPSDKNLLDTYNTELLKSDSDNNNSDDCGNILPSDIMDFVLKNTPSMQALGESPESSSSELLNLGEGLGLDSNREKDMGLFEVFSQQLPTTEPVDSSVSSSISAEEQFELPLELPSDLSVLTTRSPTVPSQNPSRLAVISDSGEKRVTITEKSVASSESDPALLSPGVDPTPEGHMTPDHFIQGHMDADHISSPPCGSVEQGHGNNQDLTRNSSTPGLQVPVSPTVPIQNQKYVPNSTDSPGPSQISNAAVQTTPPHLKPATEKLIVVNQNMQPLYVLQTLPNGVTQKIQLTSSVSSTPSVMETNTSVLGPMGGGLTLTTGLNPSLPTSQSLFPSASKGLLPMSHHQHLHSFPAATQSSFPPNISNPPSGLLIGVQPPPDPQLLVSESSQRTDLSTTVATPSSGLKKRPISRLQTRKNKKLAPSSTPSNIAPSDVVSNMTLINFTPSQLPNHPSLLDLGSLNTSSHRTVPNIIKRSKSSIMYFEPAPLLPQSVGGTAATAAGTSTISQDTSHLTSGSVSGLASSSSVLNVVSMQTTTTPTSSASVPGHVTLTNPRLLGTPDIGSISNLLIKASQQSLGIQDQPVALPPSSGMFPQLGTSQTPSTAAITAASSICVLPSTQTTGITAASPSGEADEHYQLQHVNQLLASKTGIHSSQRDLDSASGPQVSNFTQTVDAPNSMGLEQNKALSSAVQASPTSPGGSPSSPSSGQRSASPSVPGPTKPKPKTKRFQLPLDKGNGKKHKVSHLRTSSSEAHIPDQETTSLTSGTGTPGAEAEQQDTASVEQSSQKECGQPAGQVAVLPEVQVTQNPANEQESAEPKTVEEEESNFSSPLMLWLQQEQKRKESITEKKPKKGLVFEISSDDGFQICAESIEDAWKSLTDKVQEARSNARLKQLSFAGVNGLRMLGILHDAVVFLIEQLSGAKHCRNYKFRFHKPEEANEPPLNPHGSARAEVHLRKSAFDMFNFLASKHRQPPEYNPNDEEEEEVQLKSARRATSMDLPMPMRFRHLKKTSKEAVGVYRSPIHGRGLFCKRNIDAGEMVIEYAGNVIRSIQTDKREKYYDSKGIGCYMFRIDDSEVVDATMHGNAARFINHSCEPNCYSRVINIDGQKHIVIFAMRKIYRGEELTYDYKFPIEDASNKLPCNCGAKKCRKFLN
HEK293 cell lysate proteins (Homo sapiens, UniProt P23490), sequence (P23490 whole entry): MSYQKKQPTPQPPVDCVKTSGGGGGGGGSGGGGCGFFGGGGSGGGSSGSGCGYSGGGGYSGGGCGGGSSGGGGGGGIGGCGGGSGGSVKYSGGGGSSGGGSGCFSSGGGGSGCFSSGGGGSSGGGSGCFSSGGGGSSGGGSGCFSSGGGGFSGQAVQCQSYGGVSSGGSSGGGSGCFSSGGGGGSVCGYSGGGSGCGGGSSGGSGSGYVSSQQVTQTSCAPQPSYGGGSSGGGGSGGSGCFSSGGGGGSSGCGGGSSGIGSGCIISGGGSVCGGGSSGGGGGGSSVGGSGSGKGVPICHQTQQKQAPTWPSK
HEK293 cell lysate proteins (Homo sapiens, UniProt Q52LG2), sequence (Q52LG2 whole entry): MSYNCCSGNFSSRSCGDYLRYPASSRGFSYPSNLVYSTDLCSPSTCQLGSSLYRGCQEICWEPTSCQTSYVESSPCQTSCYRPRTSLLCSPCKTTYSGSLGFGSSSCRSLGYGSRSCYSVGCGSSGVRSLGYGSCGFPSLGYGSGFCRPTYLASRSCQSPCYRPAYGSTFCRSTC
HEK293 cell lysate proteins (Homo sapiens, UniProt P22531), sequence (P22531 whole entry): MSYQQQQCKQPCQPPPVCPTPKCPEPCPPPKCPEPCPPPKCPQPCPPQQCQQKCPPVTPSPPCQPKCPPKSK

## C#CCOc1ccccc1-c1cc(C(=O)NC/C=C/S(C)(=O)=O)on1 [VS, (E)-N-(3-(methylsulfonyl)allyl)−3-(2-(prop-2-yn-1-yloxy)phenyl)isoxazole-5-carboxamide]
CHIKV nsP2pro
  IC50: 0.065 µM
[1]
  Log2 fold change: 1.52
[2]
  Log2 fold change: 1.54
[3]
  Log2 fold change: 1.84
[4]
  Log2 fold change: -2.16
[5]
  Log2 fold change: 2.05
[6]
  Log2 fold change: 1.62
[7]
  Log2 fold change: 1.79
[8]
  Log2 fold change: 1.36
[9]
  Log2 fold change: 2.72
[10]
  Log2 fold change: 1.58
[11]
  Log2 fold change: 3.81
[12]
  Log2 fold change: 1.54
[13]
  Log2 fold change: 1.22
[14]
  Log2 fold change: 1.51
[15]
  Log2 fold change: 1.49
[16]
  Log2 fold change: 1.50
[17]
  Log2 fold change: 3.73
[18]
  Log2 fold change: 2.49
[19]
  Log2 fold change: 5.21
[20]
  Log2 fold change: 1.15
[21]
  Log2 fold change: 2.37
[22]
  Log2 fold change: 1.61
[23]
  Log2 fold change: -2.07
[24]
  Log2 fold change: 2.14
[25]
  Log2 fold change: 1.71
[26]
  Log2 fold change: -1.21
[27]
  Log2 fold change: -1.44
[28]
  Log2 fold change: 1.48
[29]
  Log2 fold change: 1.78
[30]
  Log2 fold change: 1.64
[31]
  Log2 fold change: 1.12
[32]
  Log2 fold change: 1.98
[33]
  Log2 fold change: -1.19
[34]
  Log2 fold change: 3.14
[35]
  Log2 fold change: 1.43
[36]
  Log2 fold change: 1.10
[37]
  Log2 fold change: 2.38
[38]
  Log2 fold change: 2.79
[39]
  Log2 fold change: 2.53
[40]
  Log2 fold change: 1.60
[41]
  Log2 fold change: 1.67
